Experimental data published in patent US12655106B2 (Eikonizo Therapeutics, Inc., priority 2021, dated 2026).

Experiments:
Full length Human HDAC6 = molecular target: T1, Full length Human HDAC6 (Homo sapiens, UniProt Q9UBN7); experiment: Caliper endpoint assay for HDAC enzymatic activity (HDAC6); type: biochemical; conditions: for IC50: in vitro enzymatic, Caliper endpoint assay, 30 min pre-incubation, 1 μM substrate peptide; for Selectivity (6 v 8): ratio of HDAC8 IC50/HDAC6 IC50
T1 construct: Full length Human HDAC6; FLAG (C); host or cells: baculovirus expression system
T1 sequence (Q9UBN7 1-1215): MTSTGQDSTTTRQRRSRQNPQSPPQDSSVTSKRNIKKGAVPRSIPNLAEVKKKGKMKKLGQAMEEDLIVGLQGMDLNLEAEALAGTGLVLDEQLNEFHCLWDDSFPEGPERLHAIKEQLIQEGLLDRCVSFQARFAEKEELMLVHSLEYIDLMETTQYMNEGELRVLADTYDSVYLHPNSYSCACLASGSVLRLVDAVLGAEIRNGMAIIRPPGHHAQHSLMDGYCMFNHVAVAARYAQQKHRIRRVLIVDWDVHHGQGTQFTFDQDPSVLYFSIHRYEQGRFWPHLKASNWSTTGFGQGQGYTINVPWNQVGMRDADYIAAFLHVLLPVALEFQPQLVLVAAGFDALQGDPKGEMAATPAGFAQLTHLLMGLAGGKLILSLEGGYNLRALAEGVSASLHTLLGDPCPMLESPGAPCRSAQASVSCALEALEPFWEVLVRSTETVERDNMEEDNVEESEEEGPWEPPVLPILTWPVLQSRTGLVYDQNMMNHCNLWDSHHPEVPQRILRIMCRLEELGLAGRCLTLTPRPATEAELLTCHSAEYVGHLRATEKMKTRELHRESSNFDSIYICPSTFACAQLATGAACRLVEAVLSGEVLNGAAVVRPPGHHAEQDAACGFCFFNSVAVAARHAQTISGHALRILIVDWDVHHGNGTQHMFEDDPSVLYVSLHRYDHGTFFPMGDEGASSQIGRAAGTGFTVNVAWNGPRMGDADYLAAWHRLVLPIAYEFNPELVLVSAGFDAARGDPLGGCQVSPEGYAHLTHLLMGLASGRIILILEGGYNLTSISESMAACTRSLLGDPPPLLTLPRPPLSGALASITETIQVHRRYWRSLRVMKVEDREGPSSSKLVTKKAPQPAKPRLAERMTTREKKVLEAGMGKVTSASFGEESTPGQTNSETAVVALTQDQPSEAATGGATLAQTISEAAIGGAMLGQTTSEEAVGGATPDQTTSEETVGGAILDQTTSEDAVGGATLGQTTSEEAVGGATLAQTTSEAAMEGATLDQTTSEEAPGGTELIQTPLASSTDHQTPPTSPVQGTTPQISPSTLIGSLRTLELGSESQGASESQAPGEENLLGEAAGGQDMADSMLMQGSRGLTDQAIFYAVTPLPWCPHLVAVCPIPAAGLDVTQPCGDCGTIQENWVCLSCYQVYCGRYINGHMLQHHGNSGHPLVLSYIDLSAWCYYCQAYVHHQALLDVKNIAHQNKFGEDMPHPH

Full length Human HDAC8 = molecular target: T2, Full length Human HDAC8 (Homo sapiens, UniProt Q9BY41); experiment: Caliper endpoint assay for HDAC enzymatic activity (HDAC8); type: biochemical; conditions: in vitro enzymatic, 30 min pre-incubation, 1 μM substrate peptide
T2 construct: Full length Human HDAC8; HIS (N); host or cells: baculovirus expression system
T2 sequence (Q9BY41 1-377): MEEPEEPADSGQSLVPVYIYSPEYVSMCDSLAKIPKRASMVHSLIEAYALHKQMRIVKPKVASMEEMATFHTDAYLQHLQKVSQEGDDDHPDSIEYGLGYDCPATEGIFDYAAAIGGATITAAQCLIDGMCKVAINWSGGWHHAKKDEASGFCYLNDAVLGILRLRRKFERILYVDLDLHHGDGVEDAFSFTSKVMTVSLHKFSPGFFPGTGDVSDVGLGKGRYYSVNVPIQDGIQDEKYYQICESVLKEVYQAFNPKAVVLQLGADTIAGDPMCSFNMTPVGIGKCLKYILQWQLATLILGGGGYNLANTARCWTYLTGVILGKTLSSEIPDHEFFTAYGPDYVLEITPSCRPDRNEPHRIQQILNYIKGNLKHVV

Structure (SMILES)	IC50 (Full length Human HDAC6)	Selectivity (6 v 8) (Full length Human HDAC6)	IC50 (Full length Human HDAC8)
CC[C@H]1Cc2c(F)cc(C(=O)NO)cc2CN1C[C@@H]1C[C@H]2CC[C@@H](C1)N2C (single isomer, unassigned) [Compound 573]	1 to 100 nM	IV (IV: >100-1000)	1000 to 10000 nM
O=C(NO)c1ccc2c(c1)CCN1CCC[C@@H]21 [Compound 149]	100 to 1000 nM	II (II: >1-10)	1000 to 10000 nM
O=C(NO)c1ccc2c(c1)C[C@@H]1CCCN1C2 [Compound 121]	100 to 1000 nM	III (III: >10-100)	10000 to 100000 nM
O=C(NO)c1cc(F)c2c(c1)CCN([C@@H]1CCOC3(C1)CN(C1CC1)C3)C2 (single isomer, unassigned) [Compound 449]	1000 to 10000 nM	III (III: >10-100)	10000 to 100000 nM
C[C@H]1CC[C@@H]2c3c(F)cc(C(=O)NO)cc3CCN21 (single isomer, unassigned) [Compound 159]	100 to 1000 nM		1000 to 10000 nM
O=C(NO)c1cc(F)cc(CN2CCC3(CCCCC3)CC2)c1 [Compound 276, 3-((3-azaspiro[5.5]undecan-3-yl)methyl)-5-fluoro-N-hydroxybenzamide]	10000 to 100000 nM	I (I: 0.1-1)	1000 to 10000 nM
O=C(NO)c1cc(F)c2c(c1)CN1CCCC[C@H]1C2 [Compound 146]	100 to 1000 nM	III (III: >10-100)	10000 to 100000 nM
C[C@H]1C[C@H]2c3c(F)cc(C(=O)NO)cc3CCN2C1 (single isomer, unassigned) [Compound 154]	100 to 1000 nM		1000 to 10000 nM
O=C(NO)c1cc(F)c2c(c1)C[C@H]1CCCN1C2 [Compound 120]	1 to 100 nM	IV (IV: >100-1000)	1000 to 10000 nM
CN1CC2CC(C1)C2CN1CCc2cc(C(=O)NO)cc(F)c2C1 (stereo not shown) [Compound 463, 8-fluoro-2-[(3-methyl-3-azabicyclo[3.1.1]heptan-6-yl)methyl]-3,4-dihydro-1H-isoquinoline-6-carbohydroxamic acid]	1 to 100 nM	IV (IV: >100-1000)	10000 to 100000 nM
O=C(NO)c1cc(F)c2c(c1)C[C@H]1CCCCN1C2 [Compound 94]	100 to 1000 nM	III (III: >10-100)	1000 to 10000 nM
CC(=O)N1CC2(C[C@@H](N3CCc4cc(C(=O)NO)cc(F)c4C3)CCO2)C1 (single isomer, unassigned) [Compound 454]	1 to 100 nM	IV (IV: >100-1000)	10000 to 100000 nM
CC[C@@H]1Cc2c(F)cc(C(=O)NO)cc2CN1CC1CC2CCC(C1)N2C (single isomer, unassigned) [Compound 571]	100 to 1000 nM	III (III: >10-100)	1000 to 10000 nM
O=C(NO)c1cc(F)c2c(c1)CCN([C@H]1CCC3(CCC3)C1)C2 (single isomer, unassigned) [Compound 383]	1 to 100 nM	V (V: >1000)	10000 to 100000 nM
CC[C@@H]1Cc2c(F)cc(C(=O)NO)cc2CN1C1CCCCC1 (single isomer, unassigned) [Compound 582]	100 to 1000 nM	III (III: >10-100)	10000 to 100000 nM
CC[C@H]1CCCN1Cc1ccc(C(=O)NO)cc1F [Compound 49]	100 to 1000 nM		1000 to 10000 nM
CN1CCC[C@]2(C1)C[C@@H](N1CCc3cc(C(=O)NO)cc(F)c3C1)C2 (single isomer, unassigned) [Compound 343, 8-fluoro-N-hydroxy-2-((2r,4s)-6-methyl-6-azaspiro[3.5]nonan-2-yl)-1,2,3,4-tetrahydroisoquinoline-6-carboxamide]	1 to 100 nM	IV (IV: >100-1000)	10000 to 100000 nM
O=C(NO)c1cc(F)c2c(c1)CCN([C@@H]1CCC3(CCCCC3)C1)C2 (single isomer, unassigned) [Compound 110]	1 to 100 nM		10000 to 100000 nM
O=C(NO)c1cc(F)c2c(c1)CCN(C1CCC3(CC1)COC3)C2 [Compound 425, 8-fluoro-2-(2-oxaspiro[3.5]nonan-7-yl)-3,4-dihydro-1H-isoquinoline-6-carbohydroxamic acid]	1 to 100 nM	V (V: >1000)	10000 to 100000 nM

Other lines, results leading:

IC50 (Full length Human HDAC6)	Selectivity (6 v 8) (Full length Human HDAC6)	IC50 (Full length Human HDAC8)	Structure (SMILES)
1 to 100 nM	IV (IV: >100-1000)	10000 to 100000 nM	O=C(NO)c1cc(F)c2c(c1)CCN([C@H]1CC[C@@]13CCOC3)C2 (single isomer, unassigned) [Compound 315]
1 to 100 nM	IV (IV: >100-1000)	1000 to 10000 nM	CC[C@H]1Cc2c(F)cc(C(=O)NO)cc2CN1CC12CC(C1)N(C)C2 (single isomer, unassigned) [Compound 535]
1 to 100 nM	IV (IV: >100-1000)	1000 to 10000 nM	O=C(NO)c1cc(F)c2c(c1)CCN(C1CCC13CCCC3)C2 (stereo not shown) [Compound 314, 8-fluoro-2-spiro[3.4]octan-3-yl-3,4-dihydro-1H-isoquinoline-6-carbohydroxamic acid]
1 to 100 nM	IV (IV: >100-1000)	10000 to 100000 nM	O=C(NO)c1cc(F)c2c(c1)CCN(C1CCC3(CNC3)C1)C2 (stereo not shown) [Compound 388, 8-fluoro-N-hydroxy-2-(2-azaspiro[3.4]octan-6-yl)-1,2,3,4-tetrahydroisoquinoline-6-carboxamide]
1 to 100 nM	IV (IV: >100-1000)	1000 to 10000 nM	CC(=O)N1CC2(CCC2N2CCc3cc(C(=O)NO)cc(F)c3C2)C1 (stereo not shown) [Compound 304, 2-(2-acetyl-2-azaspiro[3.3]heptan-7-yl)-8-fluoro-3,4-dihydro-1H-isoquinoline-6-carbohydroxamic acid]
1 to 100 nM		10000 to 100000 nM	O=C(NO)c1cc(F)c2c(c1)CCN(C[C@H]1CCC3(CCCCC3)C1)C2 (single isomer, unassigned) [Compound 108]
1 to 100 nM	III (III: >10-100)	1000 to 10000 nM	CC[C@@H]1Cc2c(F)cc(C(=O)NO)cc2CN1CC1CCCCC1 (single isomer, unassigned) [Compound 517]
1 to 100 nM	IV (IV: >100-1000)	10000 to 100000 nM	CC[C@H]1Cc2c(F)cc(C(=O)NO)cc2CN1CC1C2CNCC1C2 (single isomer, unassigned) [Compound 529]
1 to 100 nM	IV (IV: >100-1000)	10000 to 100000 nM	CN1CCC[C@]2(C1)C[C@H](N1CCc3cc(C(=O)NO)cc(F)c3C1)C2 (single isomer, unassigned) [Compound 344, 8-fluoro-N-hydroxy-2-((2s,4r)-6-methyl-6-azaspiro[3.5]nonan-2-yl)-1,2,3,4-tetrahydroisoquinoline-6-carboxamide]
1 to 100 nM	IV (IV: >100-1000)	1000 to 10000 nM	CN1CCC2(CC1)CC(CN1CCc3cc(C(=O)NO)cc(F)c3C1)C2 [Compound 469, 8-fluoro-2-[(7-methyl-7-azaspiro[3.5]nonan-2-yl)methyl]-3,4-dihydro-1H-isoquinoline-6-carbohydroxamic acid]
1 to 100 nM	III (III: >10-100)	1000 to 10000 nM	CC[C@@H]1Cc2c(F)cc(C(=O)NO)cc2CN1CC12CC3CC(CC(C3)O1)C2 (single isomer, unassigned) [Compound 509]
